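Results reflect a 48-hour exposure of cells in 96-well plates to compound at five concentrations. TGI denotes the concentration required for complete inhibition of growth.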
What was measured:
Assay in all cases: NCI tumour cell line growth inhibition, 48 h
[1] = tested on: P388 leukemia
[2] = tested on: P388/ADR leukemia
[3] = tested on: LXFL 529 NSCLC
[4] = tested on: RXF-631 renal

| SMILES | TGI [1] [µM] | TGI [2] [µM] | TGI [3] [µM] | TGI [4] [µM] |
| --- | --- | --- | --- | --- |
| Cc1c2c(cc3c1[nH]c1ccccc13)C=NCC2 | 17.6 | 53.1 | – | – |
| C=C1C[C@@H](O)C[C@@]2(C)C[C@@H]3OC(=O)C(=C)[C@@H]3C[C@H]12 | 8.87 | 31.8 | – | – |
| COc1ccccc1-c1cc(=O)c2ccccc2[nH]1 | – | – | > 100 | – |
| CCOc1ccc(/C=C(\Cl)c2ccc(OC)c(OC)c2)cc1 | – | – | > 100 | – |
| COC1=C(N=[N+]=[N-])C(=O)c2ncccc2C1=O | – | – | 3.15 | 29.9 |
| O=C1O/C(=C(\Br)c2cccc3ccccc23)c2ccccc21 | – | – | > 62.7 | – |
| CCN(CC)CCCOC(=O)/C=C/c1c(C)[nH]c(=O)[nH]c1=O | > 625 | > 394 | – | – |
| Cc1cc(O)c2c(c1O)C(=O)C13C(=C2O)C(=O)C2C(O)C1C1C(O)C3C(=O)C3=C(O)c4c(O)cc(C)c(O)c4C(=O)C321 (stereo not drawn) | – | 0.144 | – | – |
| O=C(O)CCCCCOc1cccnc1/C=N/NC1=NCCN1 | – | – | > 100 | – |

From PubChem BioAssay (NCI)
